Results from ChEMBL document CHEMBL5150044, “Macrocyclization of Quinazoline-Based EGFR Inhibitors Leads to Exclusive Mutant Selectivity for EGFR L858R and Del19” (J Med Chem, 2022).
pIC50: −log10 of the molar value. Calls of active or inactive are those of the source. The rule behind the calls is not given here.

Experiments:
[1] = target: Epidermal growth factor receptor (Homo sapiens, UniProt P00533)
[2] = target: T1, Cyclin-G-associated kinase (Homo sapiens) (UniProt O14976); test: Binding affinity to recombinant GAK (unknown origin) assessed as change in melting temperature 10 uM by differential scanning fluorimetry
T1 sequence (whole entry): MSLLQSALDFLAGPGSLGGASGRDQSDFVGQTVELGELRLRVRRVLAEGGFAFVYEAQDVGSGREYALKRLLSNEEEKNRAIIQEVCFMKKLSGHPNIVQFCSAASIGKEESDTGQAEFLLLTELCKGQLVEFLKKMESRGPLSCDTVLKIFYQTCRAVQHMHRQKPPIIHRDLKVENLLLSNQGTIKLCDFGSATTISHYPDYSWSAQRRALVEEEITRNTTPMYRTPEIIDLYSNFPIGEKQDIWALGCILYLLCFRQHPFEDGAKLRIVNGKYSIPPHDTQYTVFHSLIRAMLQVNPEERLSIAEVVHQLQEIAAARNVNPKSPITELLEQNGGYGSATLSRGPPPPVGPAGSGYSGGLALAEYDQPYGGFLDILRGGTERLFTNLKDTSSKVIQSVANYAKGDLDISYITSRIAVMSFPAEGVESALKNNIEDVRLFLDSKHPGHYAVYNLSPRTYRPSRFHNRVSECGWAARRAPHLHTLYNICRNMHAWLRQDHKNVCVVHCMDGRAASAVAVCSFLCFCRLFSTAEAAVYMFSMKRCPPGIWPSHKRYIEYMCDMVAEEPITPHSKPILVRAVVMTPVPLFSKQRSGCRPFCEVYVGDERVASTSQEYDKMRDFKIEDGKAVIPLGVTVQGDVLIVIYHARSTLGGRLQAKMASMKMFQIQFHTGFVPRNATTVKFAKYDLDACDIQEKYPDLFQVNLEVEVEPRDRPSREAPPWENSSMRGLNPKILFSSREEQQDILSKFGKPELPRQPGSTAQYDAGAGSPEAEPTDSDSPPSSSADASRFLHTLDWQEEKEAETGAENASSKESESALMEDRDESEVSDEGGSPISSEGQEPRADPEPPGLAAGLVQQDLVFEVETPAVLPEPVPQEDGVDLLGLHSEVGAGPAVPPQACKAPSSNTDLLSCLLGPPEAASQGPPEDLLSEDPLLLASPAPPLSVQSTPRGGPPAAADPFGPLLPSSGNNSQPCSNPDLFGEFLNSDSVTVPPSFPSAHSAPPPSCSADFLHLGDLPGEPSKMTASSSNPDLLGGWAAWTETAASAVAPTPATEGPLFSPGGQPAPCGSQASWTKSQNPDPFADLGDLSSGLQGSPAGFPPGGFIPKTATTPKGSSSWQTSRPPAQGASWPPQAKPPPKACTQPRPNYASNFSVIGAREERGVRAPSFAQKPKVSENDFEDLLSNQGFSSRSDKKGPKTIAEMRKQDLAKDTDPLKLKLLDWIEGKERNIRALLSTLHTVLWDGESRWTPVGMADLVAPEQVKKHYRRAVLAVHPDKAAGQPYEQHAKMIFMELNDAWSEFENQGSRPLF

[3] = target: BMP-2-inducible protein kinase (Homo sapiens) (UniProt Q9NSY1); test: Binding affinity to recombinant BMP2K (unknown origin) assessed as change in melting temperature 10 uM by differential scanning fluorimetry
Sequence of BMP-2-inducible protein kinase (Homo sapiens) (Q9NSY1 whole entry, looked up): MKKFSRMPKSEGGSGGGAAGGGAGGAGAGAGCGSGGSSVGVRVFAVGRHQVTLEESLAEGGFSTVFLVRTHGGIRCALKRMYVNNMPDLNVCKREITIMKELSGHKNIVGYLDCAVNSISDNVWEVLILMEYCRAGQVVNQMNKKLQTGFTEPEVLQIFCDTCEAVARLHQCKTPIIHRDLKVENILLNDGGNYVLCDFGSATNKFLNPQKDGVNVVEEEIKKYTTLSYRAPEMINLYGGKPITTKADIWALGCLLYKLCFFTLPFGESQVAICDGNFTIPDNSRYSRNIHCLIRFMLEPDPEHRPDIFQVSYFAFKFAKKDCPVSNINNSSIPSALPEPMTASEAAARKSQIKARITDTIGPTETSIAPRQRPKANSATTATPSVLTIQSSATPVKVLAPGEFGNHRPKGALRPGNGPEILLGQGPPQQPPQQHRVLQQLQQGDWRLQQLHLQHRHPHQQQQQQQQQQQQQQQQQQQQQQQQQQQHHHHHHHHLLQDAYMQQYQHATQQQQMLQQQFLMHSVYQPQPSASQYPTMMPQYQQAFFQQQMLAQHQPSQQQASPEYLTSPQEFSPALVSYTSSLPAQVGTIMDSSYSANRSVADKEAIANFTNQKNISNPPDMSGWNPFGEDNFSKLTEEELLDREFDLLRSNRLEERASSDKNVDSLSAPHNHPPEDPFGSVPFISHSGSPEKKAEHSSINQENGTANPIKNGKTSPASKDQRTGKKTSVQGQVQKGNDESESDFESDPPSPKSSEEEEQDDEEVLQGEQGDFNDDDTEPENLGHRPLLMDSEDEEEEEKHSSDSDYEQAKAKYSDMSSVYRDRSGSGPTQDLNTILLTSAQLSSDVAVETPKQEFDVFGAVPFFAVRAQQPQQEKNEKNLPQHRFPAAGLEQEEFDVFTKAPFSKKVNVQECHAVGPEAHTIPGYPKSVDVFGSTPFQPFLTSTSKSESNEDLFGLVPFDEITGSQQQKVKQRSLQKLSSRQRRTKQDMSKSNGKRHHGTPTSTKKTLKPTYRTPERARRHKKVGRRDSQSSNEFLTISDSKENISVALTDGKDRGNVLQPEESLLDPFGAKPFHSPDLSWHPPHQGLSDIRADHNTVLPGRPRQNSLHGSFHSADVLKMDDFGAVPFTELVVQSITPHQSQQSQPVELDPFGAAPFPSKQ

[4] = target: T2, Serine/threonine-protein kinase 17A (Homo sapiens) (UniProt Q9UEE5); test: Binding affinity to recombinant STK17A (unknown origin) assessed as change in melting temperature 10 uM by differential scanning fluorimetry
T2 sequence (whole entry): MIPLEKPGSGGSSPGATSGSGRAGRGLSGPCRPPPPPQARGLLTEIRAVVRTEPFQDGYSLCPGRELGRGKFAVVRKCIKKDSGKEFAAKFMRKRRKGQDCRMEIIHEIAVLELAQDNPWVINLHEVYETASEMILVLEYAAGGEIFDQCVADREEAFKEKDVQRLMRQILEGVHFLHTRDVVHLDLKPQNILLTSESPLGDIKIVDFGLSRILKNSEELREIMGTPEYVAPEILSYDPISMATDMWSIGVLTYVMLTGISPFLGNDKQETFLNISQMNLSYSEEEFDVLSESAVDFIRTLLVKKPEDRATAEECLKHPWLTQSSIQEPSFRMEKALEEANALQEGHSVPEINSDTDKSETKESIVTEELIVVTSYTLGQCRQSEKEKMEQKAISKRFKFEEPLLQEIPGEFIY

[5] = target: Mitogen-activated protein kinase 1 and 3 (ERK2 and ERK1) (Mus musculus) (UniProt P63085+Q63844); test: Inhibition of ERK1/2 phosphorylation in mouse BaF3 cells harboring L858R mutant assessed as ERK1/2 phosphorylation at 10 to 1000 nM incubated for 8 hrs by Western blot analysis; type: cell-based; conditions: dose 10-1000 nM
Sequence of Mitogen-activated protein kinase 1 and 3 (ERK2 and ERK1) (Mus musculus) (P63085 whole entry, looked up): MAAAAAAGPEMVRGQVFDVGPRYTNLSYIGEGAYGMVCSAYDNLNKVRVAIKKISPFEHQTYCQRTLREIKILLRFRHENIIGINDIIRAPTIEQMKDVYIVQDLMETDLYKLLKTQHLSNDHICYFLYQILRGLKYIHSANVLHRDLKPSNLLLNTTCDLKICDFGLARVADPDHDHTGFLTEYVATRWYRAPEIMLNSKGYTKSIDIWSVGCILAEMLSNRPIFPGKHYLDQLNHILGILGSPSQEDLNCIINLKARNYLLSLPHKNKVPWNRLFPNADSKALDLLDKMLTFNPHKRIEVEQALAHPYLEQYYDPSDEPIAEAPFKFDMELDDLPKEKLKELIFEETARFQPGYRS
Sequence of Mitogen-activated protein kinase 1 and 3 (ERK2 and ERK1) (Mus musculus) (Q63844 whole entry, looked up): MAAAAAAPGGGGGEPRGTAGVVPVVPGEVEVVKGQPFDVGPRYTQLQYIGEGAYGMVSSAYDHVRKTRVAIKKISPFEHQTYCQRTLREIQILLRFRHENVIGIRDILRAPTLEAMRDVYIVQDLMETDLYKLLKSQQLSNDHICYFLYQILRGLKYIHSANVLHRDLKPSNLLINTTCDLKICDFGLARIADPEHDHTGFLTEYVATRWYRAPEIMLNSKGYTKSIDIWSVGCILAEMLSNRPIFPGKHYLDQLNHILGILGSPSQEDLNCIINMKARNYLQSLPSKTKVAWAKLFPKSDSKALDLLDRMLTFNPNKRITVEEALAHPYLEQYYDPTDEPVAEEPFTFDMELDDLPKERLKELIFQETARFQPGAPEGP

[6] = target: RAC-alpha serine/threonine-protein kinase (Mus musculus) (UniProt P31750); type: cell-based; conditions: BaF3, dose 10-1000 nM, time 8.0 hrs
Sequence of RAC-alpha serine/threonine-protein kinase (Mus musculus) (P31750 whole entry): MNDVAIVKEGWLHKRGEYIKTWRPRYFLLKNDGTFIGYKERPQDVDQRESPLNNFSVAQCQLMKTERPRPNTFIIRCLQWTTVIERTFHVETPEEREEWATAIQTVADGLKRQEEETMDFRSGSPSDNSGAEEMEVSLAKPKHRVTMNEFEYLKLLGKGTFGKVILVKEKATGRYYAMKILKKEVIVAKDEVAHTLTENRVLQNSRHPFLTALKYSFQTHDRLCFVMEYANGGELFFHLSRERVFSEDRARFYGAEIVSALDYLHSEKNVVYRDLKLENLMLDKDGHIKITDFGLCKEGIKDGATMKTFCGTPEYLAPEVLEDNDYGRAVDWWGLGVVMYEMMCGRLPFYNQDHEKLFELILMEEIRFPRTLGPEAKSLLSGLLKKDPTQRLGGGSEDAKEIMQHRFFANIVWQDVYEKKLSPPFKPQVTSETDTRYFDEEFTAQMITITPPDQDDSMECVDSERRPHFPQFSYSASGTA

BaF3 = test: cells; conditions: Mus musculus, BaF3, 72 h
Description: Antiproliferative activity against mouse BaF3 cells expressing EGFR WT assessed as cell viability measured after 72 hrs hrs by CellTiter Glo assay

Sequence of Epidermal growth factor receptor (P00533 whole entry): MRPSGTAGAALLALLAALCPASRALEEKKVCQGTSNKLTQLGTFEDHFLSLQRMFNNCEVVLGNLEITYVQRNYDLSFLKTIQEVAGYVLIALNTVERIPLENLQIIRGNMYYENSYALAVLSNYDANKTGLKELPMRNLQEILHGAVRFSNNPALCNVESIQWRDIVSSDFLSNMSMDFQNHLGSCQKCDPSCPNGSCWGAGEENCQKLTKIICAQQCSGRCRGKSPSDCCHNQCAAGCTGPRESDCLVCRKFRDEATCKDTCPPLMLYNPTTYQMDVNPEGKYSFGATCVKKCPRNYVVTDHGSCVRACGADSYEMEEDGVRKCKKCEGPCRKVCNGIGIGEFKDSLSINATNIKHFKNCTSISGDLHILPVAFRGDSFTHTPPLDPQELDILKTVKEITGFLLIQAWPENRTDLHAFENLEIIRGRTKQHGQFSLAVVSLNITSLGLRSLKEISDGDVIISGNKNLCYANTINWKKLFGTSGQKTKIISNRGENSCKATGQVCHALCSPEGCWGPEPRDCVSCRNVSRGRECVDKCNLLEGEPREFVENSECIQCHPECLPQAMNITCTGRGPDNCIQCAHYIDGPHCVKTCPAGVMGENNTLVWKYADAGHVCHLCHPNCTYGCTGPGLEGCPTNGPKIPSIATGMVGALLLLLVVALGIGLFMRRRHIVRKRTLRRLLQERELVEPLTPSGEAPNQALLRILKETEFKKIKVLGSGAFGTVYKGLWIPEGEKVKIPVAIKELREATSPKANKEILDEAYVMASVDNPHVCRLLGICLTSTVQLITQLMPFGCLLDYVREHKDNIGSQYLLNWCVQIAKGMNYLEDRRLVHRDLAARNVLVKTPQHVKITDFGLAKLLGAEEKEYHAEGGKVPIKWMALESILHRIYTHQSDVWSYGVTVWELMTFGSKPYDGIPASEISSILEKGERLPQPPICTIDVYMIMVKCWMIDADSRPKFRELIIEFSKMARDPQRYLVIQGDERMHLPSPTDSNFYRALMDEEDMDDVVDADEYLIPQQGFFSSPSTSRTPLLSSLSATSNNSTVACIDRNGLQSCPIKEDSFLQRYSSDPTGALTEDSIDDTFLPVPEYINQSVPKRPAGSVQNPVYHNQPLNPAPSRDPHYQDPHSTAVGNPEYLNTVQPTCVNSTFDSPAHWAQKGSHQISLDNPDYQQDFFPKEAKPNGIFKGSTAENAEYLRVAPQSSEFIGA

COc1cc2ncnc(Nc3cc(Cl)c(F)cc3O)c2cc1O
pIC50 [1]: 5.75 | ΔTm [2]: > 3 °C | ΔTm [3]: > 3 °C | ΔTm [4]: > 3 °C | inhibition [5]: Active | inhibition [6]: Active | pIC50 (BaF3): 6.69
